Results taken from EP0519971B1, “NOVEL […] ACTIVE COMPOUNDS WHICH CAN BE FORMED FROM 1,3,4,6,7,8-HEXAHYDRO-2H-PYRIMIDO-(1,2-a)-PYRIMIDINE” (priority 1990, dated 1991).

What was measured:
[1] = Solubility in water of TBD salts (crude samples); assay type: physicochemical
Experimental: Solubilities were determined with the crude samples and indicate the volume of water sufficient to dissolve one gram of the salt.

Which “Solubility in distilled water” value (pH 6.5) does the source give for `C1CN=C2NCCCN2C1.O=C(O)c1cc2ccccc2[nH]1` [Example 2, salt of 1,5,7-triazabicyclo-[4.4.7]dec-5-ene (TBD, HHPP) with indole-2-carboxylic acid] here?
The value was 70 mg/mL.

And the pH of solution (solution in water)?
Its pH of solution is 6.5.

For `C1CN=C2NCCCN2C1.O=C(O)c1ccc(Cl)cc1[N+](=O)[O-]` [Example 8, TBD 4-chloro-2-nitrobenzoate], which Solubility in water [1] is on record?
The Solubility in water was no less than 10 g/100ml.

Which Solubility in water [1] does the source give for `C1CN=C2NCCCN2C1.O=C(O)Cc1ccc([N+](=O)[O-])cc1` [Example 9, TBD 4-nitrophenylacetate] here?
Its Solubility in water is no less than 20 g/100ml.

For `C1CN=C2NCCCN2C1.O=C(O)Cc1ccc([N+](=O)[O-])cc1[N+](=O)[O-]` [Example 10, TBD 2,4-dinitrophenylacetate], which Solubility in water [1] is on record?
The Solubility in water was no less than 30 g/100ml.

For `C1CN=C2NCCCN2C1.O=C(O)c1cc(Cl)ccc1[N+](=O)[O-]` [Example 11, TBD 5-chloro-2-nitrobenzoate], which Solubility in water [1] is on record?
The Solubility in water was no less than 40 g/100ml.

For `C1CN=C2NCCCN2C1.O=C(O)c1ccc(Cl)c([N+](=O)[O-])c1` [Example 12, TBD 4-chloro-3-nitrobenzoate], which Solubility in water [1] is on record?
Its Solubility in water is no less than 40 g/100ml.

Which Solubility in water [1] does the source give for `C1CN=C2NCCCN2C1.O=C(O)c1cc([N+](=O)[O-])ccc1O` [Example 13, TBD 5-nitrosalicylate (2-hydroxy-5-nitrobenzoate)] here?
The Solubility in water was no less than 160 g/100ml.

Which Solubility in water [1] does the source give for `C1CN=C2NCCCN2C1.O=C(O)c1ccc([N+](=O)[O-])c(O)c1` [Example 14, TBD 3-hydroxy-4-nitrobenzoate] here?
The Solubility in water was no less than 30 g/100ml.

Which Solubility in water [1] does the source give for `C1CN=C2NCCCN2C1.O=C(O)c1ccccc1I` [Example 15, TBD 2-iodobenzoate] here?
The Solubility in water was no less than 10 g/100ml.

With `C1CN=C2NCCCN2C1.C1CN=C2NCCCN2C1.O=C(O)c1cc(C(=O)O)cc([N+](=O)[O-])c1` [Example 17, TBD 5-nitroisophthalate (5-nitrobenzene-1,3-dicarboxylic acid bis TBD salt)] as the compound, how does the Solubility in water [1] read?
The Solubility in water was no less than 30 g/100ml.

Which Solubility in water [1] does the source give for “TBD 5-amino-5-hydroxybenzoate [Example 16]” here?
Its Solubility in water is no less than 10 g/100ml.
